One test concerns the target Ab1 (4G2 antibody). Briefly: SPR binding to immobilized Ab1. On the set-up: species or system mouse. Particulars: BIAcore T200, Ab1 immobilized on CM5 chip, PBS with 0.005% surfactant P20, 30 μl/min, mean ± SD (n = 3), read-out: Kd of Ab1 binding (apparent Kd for DCAF). The procedure: (§1) Surface plasmon resonance (SPR) experiments were performed using a BIAcore T200 instrument (GE healthcare) equipped with a CM5 sensor chip. Briefly, Ab1, Ab2 or Ab3 were directly immobilized onto a CM5 sensor chip using an EDC/NHS amine coupling kit. A blank channel was used as the negative control. For SPR measurements, all peptides were directly dissolved in running buffer (PBS with 0.005% surfactant P20). The analytes were injected and disassociated with immobilized IgG at a flow rate of 30 μl min^–1. After each binding and dissociation cycle, the surface of a sensor chip was regenerated using 10 mM glycine-HCl buffer (pH 2.0). The sensorgrams were corrected by subtraction of the signal from the negative control flow path and curve-fitted to calculate the reaction rate and constants using Evaluation 1.0 software.
For orientation: SPR reads the build-up and loss of mass on a sensor chip optically.

Another test relates to Ab2. Put plainly: ELISA competition assay of Ab2 binding to GST-fused pep2. The format is biochemical, mouse. Conditions: sandwich ELISA, GST-fused pep2, Ab2 10 nM, OD450. As to the method:
A standard sandwich ELISA assay was used for competition experiment. Briefly, 96-well microtiter plates were coated overnight with anti-GST antibody (10 nM) at 4 °C and blocked with 200 μL of 1% BSA in PBS at room temperature for 1 h. Then the artificial antigen (0.5 nM), pep2 coupled with the GST protein, was added to the wells and incubated for 2 h at RT. The plates were washed with PBS/0.05% Tween 20, and Ab2 (10 nM) or Ab2 (10 nM) plus other ligands, antigen, Fc-III or DCAF2 at series concentrations, were added and incubated for 2 h at RT. […] For a C1q binding assay, rat C1q ELISA kit was used following the protocol of the manufacturer. Briefly, incubated 25 ng mL^–1 C1q and series concentrations of Ab4 or DCAF4 with a pre-coated C1q capture antibody for 2 h at RT. Then HRP linked detection antibody was added for 1 h at RT and the TMB substrate was used to measure the concentration of C1q at OD450.
In general terms: In an ELISA, binding on a coated surface is turned into a signal by an enzyme label.

The target in test [1] is Ab2 (monoclonal antibody raised against pep2). Briefly: SPR binding to immobilized Ab2. On the set-up: species or system mouse. Conditions: BIAcore T200, Ab2 immobilized on CM5 chip, PBS with 0.005% surfactant P20, mean ± SD (n = 3), read-out: Kd of Ab2 binding (apparent Kd for DCAF). As to the method: as §1
Test [2] concerns the target Ab3 (monoclonal antibody raised against pep3). Put plainly: SPR binding to immobilized Ab3. The arrangement: species or system mouse. Particulars: BIAcore T200, Ab3 immobilized on CM5 chip, PBS with 0.005% surfactant P20, mean ± SD (n = 3), read-out: Kd of Ab3 binding (apparent Kd for DCAF). As to the method: as §1
The target of test [3] is mAb35 (Ab4), commercial antibody that blocks the acetylcholine receptor. Briefly: SPR.
Another test has as its target Ab4 (mAb35 antibody). Put plainly: SPR binding to immobilized Ab4. Particulars: mean ± SD (n = 3), read-out: Kd of Ab4 binding (apparent Kd for DCAF).
Test [4] deals with 4G2 antibody (Ab1), ADE-inducible mouse monoclonal IgG (mouse). Put plainly: SPR; BIAcore T200; antibody (IgG) immobilised on a CM5 chip by EDC/NHS amine coupling; peptides as analytes in PBS with 0.005% surfactant P20, 30 ul/min; regeneration 10 mM glycine-HCl pH 2.0; apparent Kd for DCAF, bivalent fit gives Kd1 and Kd2.

As for `CC(C)C[C@@H]1NC(=O)[C@H](Cc2c[nH]cn2)NC(=O)[C@H](Cc2c[nH]c3ccccc23)NC(=O)[C@H](C)NC(=O)[C@@H](NC(=O)[C@@H](N)CC(=O)O)CSSC[C@@H](C(=O)N[C@H](C(=O)O)[C@@H](C)O)NC(=O)[C@H](Cc2c[nH]c3ccccc23)NC(=O)[C@H](C(C)C)NC(=O)[C@H](CC(C)C)NC(=O)[C@H](CCC(=O)O)NC(=O)CNC1=O` [Fc-III], the figures for the Kd (at Ab1 (4G2 antibody); in test [1]; in test [2]) were 239 ± 2 nM, 169 ± 18 nM and 134 ± 6 nM, respectively. Moreover, the “inhibition of antigen–antibody (pep2–Ab2) binding” value in the test with Ab2 is on record as “did not inhibit”.
Regarding Fc-III-4C peptide, the Kd in test [3] stood at 14 nM.
Turning to `CC(C)C[C@@H]1NC(=O)[C@H](Cc2c[nH]cn2)NC(=O)[C@H](Cc2c[nH]c3ccccc23)NC(=O)[C@H](C)NC(=O)[C@@H]2CSSC[C@H](NC(=O)[C@H](Cc3c[nH]c4ccccc34)NC(=O)[C@H](C(C)C)NC(=O)[C@H](CC(C)C)NC(=O)[C@H](CCC(=O)O)NC(=O)CNC1=O)C(=O)N[C@@H]([C@@H](C)O)C(=O)N[C@H](C(=O)O)CSSC[C@H](N)C(=O)N[C@@H](CC(=O)O)C(=O)N2` [Fc-III-4C], on Ab4 (mAb35 antibody), the Kd came out at 13.99 ± 0.03 nM.
As for Fc-III peptide, the Kd in test [4] was determined as 239 nM.

The values above are taken from article PMC6429600, “Development of a dual-functional conjugate of antigenic peptide and Fc-III mimetics (DCAF) for targeted antibody blocking” (Chemical Science, 2019).
